Assay results as given in patent US8674064B2, “Immunogenic compositions against human progastrin peptides” (Onkologix Ltd, priority 2010, dated 2014).
Ends that are not written are not given here.

Columns and labels:
huG17 [1] = experiment: ELISA antibody responses in mice after immunization with peptide-carrier conjugates; type: in vivo; settings: three immunizations, FIG. 1
Experimental: FIG. 1 depicts antibody responses in mice as measured by ELISA and are in response to three immunizations with immunogens comprising each of the conjugates hG18-TT, hG18-DT, hG21-TT and hG21-DT (A, B, C and D, respectively).
(§1) The conjugate may be characterized as to immunomimic peptide content by a number of methods known to those skilled in the art including weight gain, amino acid analysis, etc. Conjugates of peptides G18 and G21 to TT produced by these methods were determined by amino acid analysis to have 10-30 moles of peptide per 104-106 MW of TT and all were considered suitable as immunogens for immunization of test animals. Similarly DT conjugates of G18 and G21, were prepared in the same manner to determine ELISA titers using huG17 as the substrate for assay of antibody binding.
The inventors constructed conjugates comprising each of the G18 and G21 peptides listed in Example 1 linked to TT and DT, as described in Examples 1 and 2. They then immunized six mice with the peptide G18 immunogen (FIGS. 1A, B) and six mice with the peptide G21 immunogen (FIGS. 1C, D).

[2] = tested on: human gastric cancer cells (BCG-823); settings: in vivo
huG17 [3] = experiment: ELISA antibody responses in rabbits after immunization with peptide-carrier conjugates; type: in vivo; settings: one administration, FIG. 2
Experimental: FIG. 2 depicts antibody responses in rabbits, as measured by ELISA, with one administration of a conjugate constructed with peptide 1 (hG18-TT) and peptide 2 (hG21-TT) of Examples 1 and Example 2 below, per A and B, respectively.
as §1
The inventors constructed conjugates comprising each of the G18 and G21 peptides, supra, linked to TT and DT as described in Examples 1 and 2. They then immunized four rabbits with the G18 immunogen (FIG. 2A) and four rabbits with the G21 immunogen (FIG. 2B).

pGlu-Gly-Pro-Trp-isoVal-Glu-Glu-Glu-Glu-Glu-Ala-Ser-Ser-Pro-Pro-Pro-pro-Cys (EGPWVEEEEEASSPPPPC; not fully specified (residues 1, 5, 17); printed as pGlu-Gly-Pro-Trp-isoVal-Glu-Glu-Glu-Glu-Glu-Ala-Ser-Ser-Pro-Pro-Pro-pro-Cys) [Peptide 2]
effective: potency, eliciting of antibody and duration of the antibody responses induced (ELISA) (huG17 [1]) | antibody responses effective in the presence of conventional gastric cancer chemotherapies [2] | inhibiting the growth of human gastric cancer cells [2] | potency, eliciting of antibody and duration of the antibody responses induced (ELISA) (huG17 [3])

Cys-pro-Pro-Pro-Pro-Ser-Ser-Gly-Trp-Met-Asp-nPhe-Gly-Arg-Arg-Ser-Ala-Glu-Asp-Glu-Asn (CPPPPSSGWMDFGRRSAEDEN; not fully specified (residues 2, 12); printed as Cys-pro-Pro-Pro-Pro-Ser-Ser-Gly-Trp-Met-Asp-nPhe-Gly-Arg-Arg-Ser-Ala-Glu-Asp-Glu-Asn) [Peptide 1]
effective: potency, eliciting of antibody and duration of the antibody responses induced (ELISA) (huG17 [1]) | antibody responses effective in the presence of conventional gastric cancer chemotherapies [2] | inhibiting the growth of human gastric cancer cells [2] | potency, eliciting of antibody and duration of the antibody responses induced (ELISA) (huG17 [3])
